Where two headings read alike, the source gives them in different places.

The record followed here is US9499550B2 (BRISTOL-MYERS SQUIBB COMPANY, priority 2012, dated 2016).

The subject of test [1] is HCV genotype 1a (H77 strain) replicon in HUH-7 cells. The test can be described thus: HCV replicon luciferase reporter assay, genotype 1a. In kind it is cell-based. Conditions: Hepatitis C virus, Huh-7, 72 h, HCV genotype 1a replicon luciferase, 3 days incubation. The gist of the method: (§1)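 Replicon inhibition for both genotypes was measured as Renilla luciferase signal (EnduRen, 7.5 μM final, 2 h) after 3-day, 37° C exposure of replicon-bearing HUH-7 cells in 4% FCS DMEM, 0.5% DMSO. The 1b construct carries S1179I; the 1a H77 construct carries P1496L and S2204I. Twenty-point, 3-fold dilutions were fitted four-parametrically for EC50, and CC50 was taken from multiplexed Cell Titer-Blue.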

Test [2] deals with HCV genotype 1b (Con1) replicon in HUH-7 cells. The test can be described thus: HCV replicon luciferase reporter assay, genotype 1b. Conditions: Hepatitis C virus, Huh-7, 72 h, HCV genotype 1b replicon luciferase, 3 days incubation. In kind it is cell-based. In short, it runs like this:
as §1

The mark [3] stands for this setting: GETYPE1A, read-out: LE_1a (EC50, range).
Where [4] appears, read: GETYPE1B, read-out: LE_1b (EC50, range).

Take `COc1ccc2nc(C(C)C)c(O[C@@H]3C[C@H]4C(=O)N[C@]5(C(=O)NS(=O)(=O)C6CC6)C[C@H]5/C=C\CC[C@H](C)C[C@@H](C)[C@H](NC(=O)OC(C)(C)C)C(=O)N4C3)nc2c1` [Compound 4315, tert-butyl ((2R,6S,7R,9S,13aS,14aR,16aS,Z)-14a-((cyclopropylsulfonyl)carbamoyl)-2-((3-isopropyl-7-methoxyquinoxalin-2-yl)oxy)-7,9-dimethyl-5,16-dioxo-1,2,3,5,6,7,8,9,10,11,13a,14,14a,15,16,16a-hexadecahydrocyclopropa[e]pyrrolo[1,2-a][1,4]diazacyclopentadecin-6-yl)carbamate]: the EC50 in test [1] (read-out: LE_1a (EC50, range)) was 5.01 to 35 nM; in test [2] (read-out: LE_1b (EC50, range)) it was 1.01 to 5 nM.

Turning to `COc1ccc2nc(C(C)C)c(O[C@@H]3C[C@H]4C(=O)N[C@]5(C(=O)NS(=O)(=O)C6CC6)C[C@H]5/C=C\CC[C@@H](C)C[C@@H](C)[C@H](NC(=O)OC(C)(C)C)C(=O)N4C3)nc2c1` [Compound 4316, tert-butyl ((2R,6S,7R,9R,13aS,14aR,16aS,Z)-14a-((cyclopropylsulfonyl)carbamoyl)-2-((3-isopropyl-7-methoxyquinoxalin-2-yl)oxy)-7,9-dimethyl-5,16-dioxo-1,2,3,5,6,7,8,9,10,11,13a,14,14a,15,16,16a-hexadecahydrocyclopropa[e]pyrrolo[1,2-a][1,4]diazacyclopentadecin-6-yl)carbamate], the EC50 in test [1] (read-out: LE_1a (EC50, range)) lay within 1.01 to 5 nM; in test [2] (read-out: LE_1b (EC50, range)), 1.01 to 5 nM.

Consider `COc1ccc2nc(C(C)C)c(O[C@@H]3C[C@H]4C(=O)N[C@]5(C(=O)NS(=O)(=O)C6CC6)C[C@H]5/C=C\CC[C@@H](C)C[C@@H](C)[C@H](NC(=O)OC(C)(C)C(F)(F)F)C(=O)N4C3)nc2c1` [Compound 4317], for which the EC50 in test [1] (setting [3]) and in test [2] (setting [4]) was 1.01 to 5 nM throughout.

For the molecule `COc1ccc2nc(C(C)C)c(O[C@@H]3C[C@H]4C(=O)N[C@]5(C(=O)NS(=O)(=O)C6CC6)C[C@H]5/C=C\CC[C@H](C)C[C@@H](C)[C@H](NC(=O)OC(C)(C)C(F)(F)F)C(=O)N4C3)nc2c1` [Compound 4318], the EC50 in test [1] (setting [3]) is 5.01 to 35 nM; in test [2] (setting [4]), 1.01 to 5 nM.

As to `COc1ccc2c(O[C@@H]3C[C@H]4C(=O)N[C@]5(C(=O)NS(=O)(=O)C6(C)CC6)C[C@H]5/C=C\CC[C@@H](C)C[C@@H](C)[C@H](NC(=O)OC(C)(C)C)C(=O)N4C3)cnnc2c1` [Compound 4319, tert-butyl ((2R,6S,7R,9R,13aS,14aR,16aS,Z)-2-((7-methoxycinnolin-4-yl)oxy)-7,9-dimethyl-14a-(((1-methylcyclopropyl)sulfonyl)carbamoyl)-5,16-dioxo-1,2,3,5,6,7,8,9,10,11,13a,14,14a,15,16,16a-hexadecahydrocyclopropa[e]pyrrolo[1,2-a][1,4]diazacyclopentadecin-6-yl)carbamate], the EC50 in test [1] (read-out: LE_1a (EC50, range)) lay in the range of 5.01 to 35 nM; in test [2] (read-out: LE_1b (EC50, range)) it was 35 to 620 nM.

For `CC[C@@H]1C[C@H](C)CC/C=C\[C@@H]2C[C@@]2(C(=O)NS(=O)(=O)C2(C)CC2)NC(=O)[C@@H]2C[C@@H](Oc3cnnc4cc(OC)ccc34)CN2C(=O)[C@H]1NC(=O)OC(C)(C)C(F)(F)F` [Compound 4320], the EC50 in test [1] (GETYPE1A, read-out: LE_1a (EC50)) was 15 nM; in test [1] (setting [3]), 5.01 to 35 nM; in test [2] (GETYPE1B, read-out: LE_1b (EC50)) it was 21.9 nM; in test [2] (setting [4]), 5.01 to 35 nM.

As for `CC[C@@H]1C[C@H](C)CC/C=C\[C@@H]2C[C@@]2(C(=O)NS(=O)(=O)C2(C)CC2)NC(=O)[C@@H]2C[C@@H](Oc3cnnc4cc(OC)ccc34)CN2C(=O)[C@H]1NC(=O)OC(C)(C)C` [Compound 4321, tert-butyl ((2R,6S,7R,9R,13aS,14aR,16aS,Z)-7-ethyl-2-((7-methoxycinnolin-4-yl)oxy)-9-methyl-14a-(((1-methylcyclopropyl)sulfonyl)carbamoyl)-5,16-dioxo-1,2,3,5,6,7,8,9,10,11,13a,14,14a,15,16,16a-hexadecahydrocyclopropa[e]pyrrolo[1,2-a][1,4]diazacyclopentadecin-6-yl)carbamate], the EC50 in test [1] (read-out: LE_1a (EC50, range)) was in the range of 5.01 to 35 nM; in test [2] (read-out: LE_1b (EC50, range)) it was 5.01 to 35 nM.

Take `COc1ccc2c(O[C@@H]3C[C@H]4C(=O)N[C@]5(C(=O)NS(=O)(=O)C6(C)CC6)C[C@H]5/C=C\CC[C@@H](C)C[C@@H](C)[C@H](NC(=O)OC(C)(C)C(F)(F)F)C(=O)N4C3)cnnc2c1` [Compound 4322]: the EC50 in test [1] (setting [3]) and in test [2] (setting [4]) was 5.01 to 35 nM throughout.

In the case of `CC[C@@H]1C[C@H](C)CC/C=C\[C@@H]2C[C@@]2(C(=O)NS(=O)(=O)C2(C)CC2)NC(=O)[C@@H]2C[C@@H](Oc3ncc(OC)c4ccc(F)cc34)CN2C(=O)[C@H]1NC(=O)C1(C(F)(F)F)CC1` [Compound 4323, (2R,6S,7R,9R,13aS,14aR,16aS,Z)-7-ethyl-2-((7-fluoro-4-methoxyisoquinolin-1-yl)oxy)-9-methyl-N-((1-methylcyclopropyl)sulfonyl)-5,16-dioxo-6-(1-(trifluoromethyl)cyclopropanecarboxamido)-1,2,3,5,6,7,8,9,10,11,13a,14,14a,15,16,16a-hexadecahydrocyclopropa[e]pyrrolo[1,2-a][1,4]diazacyclopentadecine-14a-carboxamide], the EC50 fell in the range of 1.01 to 5 nM in test [1] (read-out: LE_1a (EC50, range)) and 0.51 to 1 nM in test [2] (read-out: LE_1b (EC50, range)).

Regarding `CC[C@@H]1C[C@H](C)CC/C=C\[C@@H]2C[C@@]2(C(=O)NS(=O)(=O)C2(C)CC2)NC(=O)[C@@H]2C[C@@H](Oc3ncc(OC)c4ccc(F)cc34)CN2C(=O)[C@H]1NC(=O)C(C)(C)C(F)(F)F` [Compound 4324, (2R,6S,7R,9R,13aS,14aR,16aS,Z)-7-ethyl-2-((7-fluoro-4-methoxyisoquinolin-1-yl)oxy)-9-methyl-N-((1-methylcyclopropyl)sulfonyl)-5,16-dioxo-6-(3,3,3-trifluoro-2,2-dimethylpropanamido)-1,2,3,5,6,7,8,9,10,11,13a,14,14a,15,16,16a-hexadecahydrocyclopropa[e]pyrrolo[1,2-a][1,4]diazacyclopentadecine-14a-carboxamide], the EC50 in test [1] (read-out: LE_1a (EC50, range)) fell in the range of 1.01 to 5 nM; in test [2] (read-out: LE_1b (EC50, range)), 0.51 to 1 nM.

With `CC[C@@H]1C[C@H](C)CC/C=C\[C@@H]2C[C@@]2(C(=O)NS(=O)(=O)C2(CO)CC2)NC(=O)[C@@H]2C[C@@H](Oc3nccc4cc(OC)c(F)cc34)CN2C(=O)[C@H]1NC(=O)OC(C)(C)C(F)(F)F` [Compound 4325], the EC50 was in the range of 35 to 620 nM in test [1] (setting [3]) and 5.01 to 35 nM in test [2] (setting [4]).

Turning to `CC[C@@H]1C[C@@H](C)CC/C=C\[C@@H]2C[C@@]2(C(=O)NS(=O)(=O)C2(CO)CC2)NC(=O)[C@@H]2C[C@@H](Oc3nccc4cc(OC)c(F)cc34)CN2C(=O)[C@H]1NC(=O)OC(C)(C)C(F)(F)F` [Compound 4326], the EC50 in test [1] (setting [3]) and in test [2] (setting [4]) was 35 to 620 nM each time.

Take `CC[C@@H]1C[C@H](C)CC/C=C\[C@@H]2C[C@@]2(C(=O)NS(=O)(=O)C2CC2)NC(=O)[C@@H]2C[C@@H](Oc3cnnc4cc(OC)ccc34)CN2C(=O)[C@H]1NC(=O)OC(C)(C)C(F)(F)F` [Compound 4327]: the EC50 in test [1] (setting [3]) and in test [2] (setting [4]) was 5.01 to 35 nM throughout.

As to `CC[C@@H]1C[C@H](C)CC/C=C\[C@@H]2C[C@@]2(C(=O)NS(=O)(=O)C2(C)CC2)NC(=O)[C@@H]2C[C@@H](Oc3ncc(OC)c4ccc(F)cc34)CN2C(=O)[C@H]1NC(=O)N1CC(C)OC(C)C1` (stereo partly drawn) [Compound 4328, N-((2R,6S,7R,9R,13aS,14aR,16aS,Z)-7-ethyl-2-((7-fluoro-4-methoxyisoquinolin-1-yl)oxy)-9-methyl-14a-(((1-methylcyclopropyl)sulfonyl)carbamoyl)-5,16-dioxo-1,2,3,5,6,7,8,9,10,11,13a,14,14a,15,16,16a-hexadecahydrocyclopropa[e]pyrrolo[1,2-a][1,4]diazacyclopentadecin-6-yl)-2,6-dimethylmorpholine-4-carboxamide], the EC50 in test [1] (read-out: LE_1a (EC50, range)) lay within 1.01 to 5 nM; in test [2] (read-out: LE_1b (EC50, range)) it was 1.01 to 5 nM.

Consider `CC[C@@H]1C[C@H](C)CC/C=C\[C@@H]2C[C@@]2(C(=O)NS(=O)(=O)C2(C)CC2)NC(=O)[C@@H]2C[C@@H](Oc3nccc4cc(OC)c(F)cc34)CN2C(=O)[C@H]1NC(=O)C1(C(F)(F)F)CC1` [Compound 4331, (2R,6S,7R,9R,13aS,14aR,16aS,Z)-7-ethyl-2-((7-fluoro-6-methoxyisoquinolin-1-yl)oxy)-9-methyl-N-((1-methylcyclopropyl)sulfonyl)-5,16-dioxo-6-(1-(trifluoromethyl)cyclopropanecarboxamido)-1,2,3,5,6,7,8,9,10,11,13a,14,14a,15,16,16a-hexadecahydrocyclopropa[e]pyrrolo[1,2-a][1,4]diazacyclopentadecine-14a-carboxamide], for which the EC50 in test [1] (read-out: LE_1a (EC50, range)) was in the range of 1.01 to 5 nM; in test [2] (read-out: LE_1b (EC50, range)), 0.51 to 1 nM.

For the molecule `CC[C@@H]1C[C@H](C)CC/C=C\[C@@H]2C[C@@]2(C(=O)NS(=O)(=O)C2(C)CC2)NC(=O)[C@@H]2C[C@@H](Oc3nccc4cc(OC)c(F)cc34)CN2C(=O)[C@H]1NC(=O)C(C)(C)C(F)(F)F` [Compound 4332, (2R,6S,7R,9R,13aS,14aR,16aS,Z)-7-ethyl-2-((7-fluoro-6-methoxyisoquinolin-1-yl)oxy)-9-methyl-N-((1-methylcyclopropyl)sulfonyl)-5,16-dioxo-6-(3,3,3-trifluoro-2,2-dimethylpropanamido)-1,2,3,5,6,7,8,9,10,11,13a,14,14a,15,16,16a-hexadecahydrocyclopropa[e]pyrrolo[1,2-a][1,4]diazacyclopentadecine-14a-carboxamide], the EC50 in test [1] (read-out: LE_1a (EC50, range)) lay in the range of 1.01 to 5 nM; in test [2] (read-out: LE_1b (EC50, range)), 1.01 to 5 nM.
